Key:
BACH1 = experiment: Western blot of BACH1 in HEK293T cells; assay type: cell-based, human; conditions: for BACH1 levels by immunoblot: 10 µM, 6 hrs
Protocol: HEK293T and U2OS were obtained from ATCC and cultured in high-glucose-containing Dulbecco’s Modified Eagle’s Medium (DMEM; Gibco; cat. #11995) supplemented with 10% fetal bovine serum (VWR) and 1% penicillin/streptomycin (Gibco). Cells were treated with either UNC10415667, UNC12149, UNC12567, hemin (Sigma; cat. #H9039), or DMSO control for the indicated times and analyzed by western blot using standard procedures. Briefly, cells were lysed on ice for 15 min in NETN lysis buffer (20 mM Tris pH 8.0, 100 mM NaCl, 0.5 mM EDTA, 0.5% NP40) supplemented with 10 µg/mL aprotinin, 10 µg/mL leupeptin, 10 µg/mL pepstatin A, 1 mM sodium orthovanadate, 1 mM sodium fluoride, and 1 mM AEBSF (4-[two aminoethyl] benzenesulfonyl fluoride). Cell lysates were centrifuged at 20,000×g in a benchtop microcentrifuge at 4 °C for 10 min. Protein concentration was determined by Bradford assay (Bio-Rad; cat. #5000006). Protein concentration was normalized using Laemmli buffer. Samples were heated for 5 min at 95°C in a dry water-bath. Samples were separated on TGX stain free gels (Bio-Rad) transferred to nitrocellulose membrane and blocked in 5% non-fat dry milk (Biorad; cat. #1706404) diluted in 1x TBS-T (137 mM NaCl, 2.7 mM KCl, 25 mM Tris pH 7.6, 1% Tween-20). Primary antibody incubations (Anti-NSD2 (Abcam; Cat# ab75359; Lot# 1093214-1; 1:1000 dilution), Anti-BACH1 (Fortis Life Sciences; Cat# A303-805A; Lot# 1; 1:1000 dilution), and Anti-GAPDH (Santa Cruz Biotechnology; Cat# sc-47724; Lot# C1023; 1:1000 dilution)) were performed overnight at 4 °C. Secondary antibodies (Peroxidase AffiniPure Goat Anti-Rabbit IgG (H + L) (Jackson Immuno; Cat# 111-035-003; 1:5000 dilution) and Peroxidase AffiniPure Goat Anti-Mouse IgG (H + L) (Jackson Immuno; Cat# 115-035-003; 1:5000 dilution)) were incubated for 1 h at room temperature. Blots were developed by chemiluminescence using Pierce ECL (Thermo Fisher Scientific; cat. #32106).

[1] = tested on: FBXO22-NSD2 PWWP1 ternary complex; experiment: Size-exclusion chromatography to monitor ternary complex formation; assay type: binding, human
Protocol: Formation of the SCF^FBXO22-UNC10088-NSD2 PWWP1 and SCF^FBXO22-UNC10415667-NSD2 PWWP1 ternary complexes was performed by incubating SKP1-FBXO22, CUL1-RBX1, NSD2 PWWP1, and UNC10088 or UNC10415667 at a 1:1:1:1 molar ratio for 4 h on ice. The SCF^FBXO22-UNC10088-NSD2 PWWP1-BACH1 BTB ternary complex was formed by incubating SKP1-FBXO22, CUL1-RBX1, NSD2 PWWP1, UNC10088, and BACH1 BTB at a 1:1:1:1:1.5 molar ratio for 1 h on ice. The incubated sample was loaded onto a Superdex 200 Increase SD200 column (Cytiva), equilibrated with 20 mM HEPES pH 8, 200 mM NaCl, 1 mM DTT, for size-exclusion chromatography, and fractions containing all subunits of the SCF^FBXO22-Degrader-NSD2 PWWP1 complex were pooled and concentrated. The SCF^FBXO22-UNC10088-NSD2 PWWP1, SCF^FBXO22-UNC10415667-NSD2 PWWP1, and SCF^FBXO22-UNC10088-NSD2 PWWP1-BACH1 BTB complexes were concentrated to 33 µM, 10.9 µM, and 4.1 µM, respectively, and flash frozen. […] In contrast, only the PWWP1 and BTB domains of NSD2 and BACH1, respectively, were used.
FBXO22 WT and variants were incubated on ice with NSD2 PWWP1 and either UNC10088 or UNC10415667 at 5 µM. After 1 h, the samples were centrifuged at 16,060 x g for 10 min at 4 °C. Each sample was examined for C326- and compound-dependent complex formation by comparing the SEC chromatograms and Coomassie-stained SDS-PAGE gels. […] These experiments were performed using a Superdex 200 Increase SD200 column (Cytiva) and 20 mM HEPES pH 8, 200 mM NaCl, 1 mM DTT.

| Structure (SMILES) | BACH1 levels by immunoblot (BACH1) | ternary complex formation between FBXO22 and NSD2 PWWP1 by SEC [1] | BACH1 and NSD2 levels upon co-treatment with Hemin (BACH1; 10 µM UNC10415667 and 20 µM Hemin, 6 h) |
| --- | --- | --- | --- |
| O=C1COc2cc(C(=O)N(Cc3ccc(C(=O)Nc4ccc5c(c4)CCN(C(=O)CCCCC(O)S(=O)(=O)O)C5)cc3)C3CC3)ccc2N1 (centres unmarked) [UNC10088] | remained constant | co-migrated together | – |
| O=Cc1ccc(C(=O)N2CCc3cc(NC(=O)c4ccc(CN(C(=O)c5ccc6c(c5)OCC(=O)N6)C5CC5)cc4)ccc3C2)cc1 [UNC10415667] | unchanged | stable complex | both BACH1 and NSD2 were degraded |

Reference: article PMC13316043, “Structural basis of NSD2 degradation via targeted recruitment of SCF-FBXO22” (Nature Communications, 2026)
